Experiment [1] addresses T1, Serine/threonine-protein kinase Nek11 (Homo sapiens) (UniProt Q8NG66).
T1 sequence (whole entry): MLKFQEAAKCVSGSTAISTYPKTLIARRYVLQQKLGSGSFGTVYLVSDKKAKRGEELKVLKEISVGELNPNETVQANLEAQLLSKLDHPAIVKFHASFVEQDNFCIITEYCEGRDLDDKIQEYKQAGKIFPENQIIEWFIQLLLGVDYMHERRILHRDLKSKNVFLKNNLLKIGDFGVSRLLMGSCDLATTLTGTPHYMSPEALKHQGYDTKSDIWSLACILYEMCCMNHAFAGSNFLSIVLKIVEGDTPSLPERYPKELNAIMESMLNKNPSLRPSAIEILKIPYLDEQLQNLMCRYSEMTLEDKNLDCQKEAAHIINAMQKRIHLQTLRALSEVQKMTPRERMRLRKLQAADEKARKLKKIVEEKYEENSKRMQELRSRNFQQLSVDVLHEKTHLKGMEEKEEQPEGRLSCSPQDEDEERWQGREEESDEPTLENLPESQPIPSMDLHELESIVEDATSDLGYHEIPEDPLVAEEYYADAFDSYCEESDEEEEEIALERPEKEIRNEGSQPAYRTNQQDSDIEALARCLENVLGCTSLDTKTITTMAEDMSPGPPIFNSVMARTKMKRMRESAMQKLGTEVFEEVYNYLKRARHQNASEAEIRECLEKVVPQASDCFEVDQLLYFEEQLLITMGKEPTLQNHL
In words: Selectivity interaction (ProQinase) EUB0000171b NEK11.

Experiment [2] addresses Mitotic checkpoint serine/threonine-protein kinase BUB1 (Homo sapiens, UniProt O43683). As to the kind of experiment: Selectivity interaction (KinomeScan (DiscoverX)) EUB0000229b BUB1. The conditions noted are these: at 10 µM.
The nature of experiment [3]: Selectivity interaction (Ex-vivo activation of CD20+ B cells in cynomolgus (anti-IgM/IL-4 stimulated pAKT)) EUB0000877a PIK3CD.
The nature of experiment [4]: Selectivity interaction (KinomeScan (DiscoverX)) EUB0000595a PKNB. The settings on record: at 10 µM.
Experiment [5] addresses T2, Serine/threonine-protein kinase Nek2 (Homo sapiens) (UniProt P51955).
T2 sequence (whole entry): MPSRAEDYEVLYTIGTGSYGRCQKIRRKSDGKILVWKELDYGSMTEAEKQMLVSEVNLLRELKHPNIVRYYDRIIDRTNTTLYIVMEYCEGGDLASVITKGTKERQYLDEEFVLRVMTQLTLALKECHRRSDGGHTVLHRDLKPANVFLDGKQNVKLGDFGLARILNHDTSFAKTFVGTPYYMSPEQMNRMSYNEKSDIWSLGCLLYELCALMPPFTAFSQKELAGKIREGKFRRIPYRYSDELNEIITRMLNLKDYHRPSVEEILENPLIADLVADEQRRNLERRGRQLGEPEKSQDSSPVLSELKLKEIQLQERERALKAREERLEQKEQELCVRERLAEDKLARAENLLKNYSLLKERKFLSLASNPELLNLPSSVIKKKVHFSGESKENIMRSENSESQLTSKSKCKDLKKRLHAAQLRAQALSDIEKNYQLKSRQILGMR
The conditions noted are these: at 10 µM.

In experiment [6] the target is Ribosomal protein S6 kinase alpha-1 (Homo sapiens, UniProt Q15418). As to the kind of experiment: Selectivity interaction (ActivX KiNativ screen (ex vivo kinase selectivity in human PBMCs)) EUB0001619a RPS6KA1. The experiment is classed as cell-based. The settings on record: PBMC, at 1 µM.
Chain of Ribosomal protein S6 kinase alpha-1 (Q15418 whole entry): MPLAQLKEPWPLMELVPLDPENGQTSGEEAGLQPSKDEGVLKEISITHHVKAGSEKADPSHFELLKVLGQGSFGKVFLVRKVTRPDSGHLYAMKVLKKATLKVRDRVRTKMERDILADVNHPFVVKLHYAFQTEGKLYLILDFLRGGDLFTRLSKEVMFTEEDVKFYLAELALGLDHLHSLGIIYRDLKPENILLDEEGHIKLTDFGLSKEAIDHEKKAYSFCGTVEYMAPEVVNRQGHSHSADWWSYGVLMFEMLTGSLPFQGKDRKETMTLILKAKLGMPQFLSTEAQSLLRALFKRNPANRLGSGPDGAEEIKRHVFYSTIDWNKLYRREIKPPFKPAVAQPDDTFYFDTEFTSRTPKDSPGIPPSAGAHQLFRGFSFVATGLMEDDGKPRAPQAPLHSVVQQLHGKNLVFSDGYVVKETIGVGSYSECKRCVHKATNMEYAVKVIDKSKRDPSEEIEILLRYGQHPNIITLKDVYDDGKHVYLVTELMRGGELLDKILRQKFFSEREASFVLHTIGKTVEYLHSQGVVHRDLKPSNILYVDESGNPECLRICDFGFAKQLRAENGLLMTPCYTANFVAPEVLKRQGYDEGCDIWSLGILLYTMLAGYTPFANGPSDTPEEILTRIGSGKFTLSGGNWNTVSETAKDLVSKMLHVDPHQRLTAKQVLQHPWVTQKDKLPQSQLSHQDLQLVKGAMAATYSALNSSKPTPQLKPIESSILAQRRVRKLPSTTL
In experiment [7] the target is T3, Cyclin-dependent kinase 11A (Homo sapiens) (UniProt Q9UQ88).
T3 sequence (whole entry): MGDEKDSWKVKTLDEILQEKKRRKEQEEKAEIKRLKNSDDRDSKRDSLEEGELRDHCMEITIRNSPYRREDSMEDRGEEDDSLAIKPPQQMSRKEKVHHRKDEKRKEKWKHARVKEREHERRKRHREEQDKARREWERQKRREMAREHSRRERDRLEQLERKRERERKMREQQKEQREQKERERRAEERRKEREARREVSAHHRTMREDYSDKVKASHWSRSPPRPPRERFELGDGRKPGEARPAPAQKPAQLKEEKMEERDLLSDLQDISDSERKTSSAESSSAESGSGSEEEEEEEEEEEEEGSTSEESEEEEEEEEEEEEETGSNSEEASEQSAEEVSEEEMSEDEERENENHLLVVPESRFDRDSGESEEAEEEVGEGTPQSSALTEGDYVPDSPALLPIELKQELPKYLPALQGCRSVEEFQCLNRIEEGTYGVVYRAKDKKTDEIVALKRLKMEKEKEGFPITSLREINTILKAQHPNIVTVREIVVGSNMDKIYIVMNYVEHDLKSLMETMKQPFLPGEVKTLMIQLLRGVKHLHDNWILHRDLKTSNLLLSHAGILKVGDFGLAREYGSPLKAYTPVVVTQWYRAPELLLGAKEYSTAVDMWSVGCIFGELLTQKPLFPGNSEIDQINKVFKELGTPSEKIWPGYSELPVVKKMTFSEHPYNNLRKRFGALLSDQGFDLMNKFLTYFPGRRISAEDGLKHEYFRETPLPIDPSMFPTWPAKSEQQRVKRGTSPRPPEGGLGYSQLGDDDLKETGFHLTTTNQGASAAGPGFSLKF
As to the kind of experiment: Selectivity interaction (ActivX KiNativ screen (ex vivo kinase selectivity in human PBMCs)) EUB0001619a CDK11A. The experiment is classed as cell-based. The settings on record: PBMC, at 1 µM.

Consider 5 compounds from ChEMBL document CHEMBL5465560, “Selectivity Literature for EUbOPEN Chemogenomic Library” (2024).

Chain of Mitotic checkpoint serine/threonine-protein kinase BUB1 (O43683 whole entry, looked up): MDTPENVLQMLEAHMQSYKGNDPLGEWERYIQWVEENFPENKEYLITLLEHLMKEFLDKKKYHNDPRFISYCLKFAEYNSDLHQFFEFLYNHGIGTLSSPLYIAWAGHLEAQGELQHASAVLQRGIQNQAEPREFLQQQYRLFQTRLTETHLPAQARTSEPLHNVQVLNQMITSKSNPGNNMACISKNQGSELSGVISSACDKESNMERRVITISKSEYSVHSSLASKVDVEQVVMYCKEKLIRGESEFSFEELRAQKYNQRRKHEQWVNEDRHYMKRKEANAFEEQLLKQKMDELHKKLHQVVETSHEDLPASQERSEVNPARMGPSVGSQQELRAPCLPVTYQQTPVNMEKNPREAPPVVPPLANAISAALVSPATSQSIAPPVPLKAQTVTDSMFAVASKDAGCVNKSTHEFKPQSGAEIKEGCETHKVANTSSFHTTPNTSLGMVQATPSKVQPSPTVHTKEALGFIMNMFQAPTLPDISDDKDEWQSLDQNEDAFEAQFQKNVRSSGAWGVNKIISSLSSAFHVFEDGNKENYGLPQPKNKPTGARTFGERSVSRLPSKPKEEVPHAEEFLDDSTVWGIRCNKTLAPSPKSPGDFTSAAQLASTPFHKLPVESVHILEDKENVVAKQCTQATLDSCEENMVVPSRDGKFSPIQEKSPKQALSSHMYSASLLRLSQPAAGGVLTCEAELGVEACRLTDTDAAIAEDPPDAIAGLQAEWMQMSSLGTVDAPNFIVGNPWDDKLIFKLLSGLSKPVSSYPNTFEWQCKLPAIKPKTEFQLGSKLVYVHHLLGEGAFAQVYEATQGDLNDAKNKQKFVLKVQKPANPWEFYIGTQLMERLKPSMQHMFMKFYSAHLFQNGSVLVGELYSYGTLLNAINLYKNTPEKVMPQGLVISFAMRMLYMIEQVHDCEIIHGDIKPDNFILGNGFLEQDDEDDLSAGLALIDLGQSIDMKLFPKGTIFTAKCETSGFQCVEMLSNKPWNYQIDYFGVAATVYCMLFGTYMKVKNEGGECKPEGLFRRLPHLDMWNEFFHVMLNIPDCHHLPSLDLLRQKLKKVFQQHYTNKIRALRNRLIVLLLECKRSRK

`C=CC(=O)Nc1cccc(C(=O)Nc2ccc(Nc3cc(-c4[nH]c(SC)nc4C)ccn3)cc2)c1`: the results for the % of control in experiment [1] (at 1 µM) and in experiment [1] (at 5 µM) were 103% and 87%, respectively.

`COc1cc(N(C)c2ccnc3ccc(C(F)(F)F)cc23)cc(OC)c1OC`: the % binding in experiment [2] is 98%.

For orientation: EC50 means the concentration giving half of the maximal effect. Read a low EC50 as greater potency. In experiment [3], `CCC(=O)N1CC[C@H](Nc2ncnc3c2CN(c2cnc(OC)c(C(F)(F)F)c2)CC3)C1` [LENIOLISIB] returned an EC50 of 0.14 µM.

Turning to `COCC(=O)NC/C=C/c1ccc2ncnc(Nc3ccc(Oc4ccc(C)nc4)c(C)c3)c2c1` [CP-724714], the % of control is 23% in experiment [4] and 100% in experiment [5].

Turning to `N#Cc1cccc(-c2c[nH]c3ncnc(N4CCOCC4)c23)c1`, the % of inhibition was -3% in experiment [6] and 36% in experiment [7].
